According to PubChem BioAssay AID1845219 (Molecular Pharmacology Branch, DTP, NCI, 2023):

Tested on: SYO-1 tumor spheroids, viability % test/control
Test: Anticancer human tumor SYO-1 cell line growth inhibition;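 also: spheroids exposed to agents for 7 days before viability read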;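 as to viability, T/C: 100% = DMSO vehicle control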
Details: spheroids with HUVEC and MSC; for IC50: curve of first compound; for viability, T/C: stronger effect = lower value
Outline: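 Single agents and combinations were tested on spheroids built from tumor cells plus HUVEC and hMSC, at half-log dilutions starting at or near clinical Cmax, else 10 microM; final DMSO 0.25% (v/v).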

O=C(c1cc(Cc2n[nH]c(=O)c3ccccc23)ccc1F)N1CCN(C(=O)C2CC2)CC1 + Cn1nnc2c(C(N)=O)ncn2c1=O
IC50 (second compound 1 µM): 1660 nM
IC50 (second compound 3.16 µM): 1620 nM
IC50 (second compound 10 µM): 677 nM
IC50 (second compound 31.6 µM): 155 nM
IC50 (second compound 100 µM): < 94.9 nM
viability, T/C (second compound 1 µM, first compound 0.0949 µM): 103%
viability, T/C (second compound 1 µM, first compound 0.3 µM): 96.2%
viability, T/C (second compound 1 µM, first compound 0.949 µM): 88.9%
viability, T/C (second compound 1 µM, first compound 3 µM): 9.23%
viability, T/C (second compound 1 µM, first compound 9.49 µM): 2.81%
viability, T/C (second compound 1 µM, first compound 30 µM): 1.98%
viability, T/C (second compound 3.16 µM, first compound 0.0949 µM): 103%
viability, T/C (second compound 3.16 µM, first compound 0.3 µM): 94.3%
viability, T/C (second compound 3.16 µM, first compound 0.949 µM): 88.4%
viability, T/C (second compound 3.16 µM, first compound 3 µM): 6.01%
viability, T/C (second compound 3.16 µM, first compound 9.49 µM): 2.08%
viability, T/C (second compound 3.16 µM, first compound 30 µM): 1.94%
viability, T/C (second compound 10 µM, first compound 0.0949 µM): 103%
viability, T/C (second compound 10 µM, first compound 0.3 µM): 94.6%
viability, T/C (second compound 10 µM, first compound 0.949 µM): 31.6%
viability, T/C (second compound 10 µM, first compound 3 µM): 2.83%
viability, T/C (second compound 10 µM, first compound 9.49 µM): 1.83%
viability, T/C (second compound 10 µM, first compound 30 µM): 1.82%
viability, T/C (second compound 31.6 µM, first compound 0.0949 µM): 76.8%
viability, T/C (second compound 31.6 µM, first compound 0.3 µM): 13.5%
viability, T/C (second compound 31.6 µM, first compound 0.949 µM): 3.35%
viability, T/C (second compound 31.6 µM, first compound 3 µM): 2.28%
viability, T/C (second compound 31.6 µM, first compound 9.49 µM): 2.18%
viability, T/C (second compound 31.6 µM, first compound 30 µM): 1.77%
viability, T/C (second compound 100 µM, first compound 0.0949 µM): 3.25%
viability, T/C (second compound 100 µM, first compound 0.3 µM): 2.69%
viability, T/C (second compound 100 µM, first compound 0.949 µM): 2.42%
viability, T/C (second compound 100 µM, first compound 3 µM): 2.49%
viability, T/C (second compound 100 µM, first compound 9.49 µM): 1.81%
viability, T/C (second compound 100 µM, first compound 30 µM): 1.75%

Cn1ncnc1[C@H]1c2n[nH]c(=O)c3cc(F)cc(c23)N[C@@H]1c1ccc(F)cc1 + COc1cc2c(cc1O)CCNC21CSC2c3c(OC(C)=O)c(C)c4c(c3C(COC1=O)N1C(O)C3Cc5cc(C)c(OC)c(O)c5C(C21)N3C)OCO4
IC50 (second compound 30 pM): < 9.49 nM
IC50 (second compound 94.9 pM): < 9.49 nM
IC50 (second compound 0.0003 µM): < 9.49 nM
IC50 (second compound 0.000949 µM): < 9.49 nM
IC50 (second compound 0.003 µM): < 9.49 nM
viability, T/C (second compound 30 pM, first compound 0.00949 µM): 40.6%
viability, T/C (second compound 30 pM, first compound 0.03 µM): 8.47%
viability, T/C (second compound 30 pM, first compound 0.0949 µM): 3.42%
viability, T/C (second compound 30 pM, first compound 0.3 µM): 2.17%
viability, T/C (second compound 30 pM, first compound 0.949 µM): 1.14%
viability, T/C (second compound 30 pM, first compound 3 µM): 1.2%
viability, T/C (second compound 94.9 pM, first compound 0.00949 µM): 9.24%
viability, T/C (second compound 94.9 pM, first compound 0.03 µM): 3.72%
viability, T/C (second compound 94.9 pM, first compound 0.0949 µM): 2.32%
viability, T/C (second compound 94.9 pM, first compound 0.3 µM): 1.61%
viability, T/C (second compound 94.9 pM, first compound 0.949 µM): 1.11%
viability, T/C (second compound 94.9 pM, first compound 3 µM): 1.06%
viability, T/C (second compound 0.0003 µM, first compound 0.00949 µM): 1.89%
viability, T/C (second compound 0.0003 µM, first compound 0.03 µM): 1.72%
viability, T/C (second compound 0.0003 µM, first compound 0.0949 µM): 1.38%
viability, T/C (second compound 0.0003 µM, first compound 0.3 µM): 1.22%
viability, T/C (second compound 0.0003 µM, first compound 0.949 µM): 1.37%
viability, T/C (second compound 0.0003 µM, first compound 3 µM): 0.93%
viability, T/C (second compound 0.000949 µM, first compound 0.00949 µM): 0.99%
viability, T/C (second compound 0.000949 µM, first compound 0.03 µM): 0.87%
viability, T/C (second compound 0.000949 µM, first compound 0.0949 µM): 0.78%
viability, T/C (second compound 0.000949 µM, first compound 0.3 µM): 0.83%
viability, T/C (second compound 0.000949 µM, first compound 0.949 µM): 0.68%
viability, T/C (second compound 0.000949 µM, first compound 3 µM): 0.57%
viability, T/C (second compound 0.003 µM, first compound 0.00949 µM): 0.13%
viability, T/C (second compound 0.003 µM, first compound 0.03 µM): 0.14%
viability, T/C (second compound 0.003 µM, first compound 0.0949 µM): 0.13%
viability, T/C (second compound 0.003 µM, first compound 0.3 µM): 0.14%
viability, T/C (second compound 0.003 µM, first compound 0.949 µM): 0.52%
viability, T/C (second compound 0.003 µM, first compound 3 µM): 0.24%
